In paper PMC3306499 (ACS Chemical Biology, 2012):
Structures can show the parent of a compound that is named as a salt. Where two headings read alike, the source gives them in different places.

Tests used:
[1] = target: human A3A (APOBEC3A) (Homo sapiens, UniProt P31941); experiment: fluorescence-based ssDNA cytosine deaminase assay, A3A; format: biochemical
[2] = target: E. coli uracil DNA glycosylase (UDG) (Escherichia coli, UniProt P12295); experiment: UDG assay; format: biochemical
[3] = target: HIV-1 RNase H (Human immunodeficiency virus type 1 group M subtype B, UniProt P04585); experiment: HIV-1 RNase H inhibition assay; format: biochemical
[4] = target: human A3G (APOBEC3G) (Homo sapiens, UniProt Q9HC16); experiment: fluorescence-based ssDNA cytosine deaminase assay, A3G; format: biochemical
Sequence of human A3G (APOBEC3G) (Q9HC16 whole entry): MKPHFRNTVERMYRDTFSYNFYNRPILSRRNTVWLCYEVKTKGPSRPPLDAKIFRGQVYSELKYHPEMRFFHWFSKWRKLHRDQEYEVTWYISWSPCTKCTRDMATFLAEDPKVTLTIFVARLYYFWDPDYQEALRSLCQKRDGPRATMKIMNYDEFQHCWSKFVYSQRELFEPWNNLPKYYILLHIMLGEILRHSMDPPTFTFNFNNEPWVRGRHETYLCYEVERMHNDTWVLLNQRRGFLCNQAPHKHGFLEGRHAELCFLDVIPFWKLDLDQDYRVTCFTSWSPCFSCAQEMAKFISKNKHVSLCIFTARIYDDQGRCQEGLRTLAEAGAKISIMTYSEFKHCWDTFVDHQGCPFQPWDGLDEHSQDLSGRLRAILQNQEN

[5] = target: HIV-1 integrase (Human immunodeficiency virus type 1 group M subtype B, UniProt P04585); experiment: concerted HIV-1 integration assay; format: biochemical
[6] = target: A3G-ssDNA complex (Homo sapiens, UniProt Q9HC16); experiment: EMSA of A3G-ssDNA complex formation; format: binding; conditions: 0.64 μM A3G, 0.08 μM ssDNA, 50 μM compound, dose response 2, 5, 10 μM
Sequence of A3G-ssDNA complex (Q9HC16 whole entry, one chain of several): as the sequence (Q9HC16 whole entry) above

[7] = cited from earlier work
[8] = target: HIV RNase H; conditions: read-out: IC50 Values RNase H, cited from earlier work
[9] = tested on: A3A-loop 6 (C321 loop of A3G swapped into A3A); experiment: deaminase assay with A3A-loop 6 swap mutant; format: biochemical, human; conditions: 50 μM compound
[10] = read-out: IC50 Values A3A, dose response, purified A3A-mycHis
[11] = read-out: IC50 Values UDG, no deaminase, uracil ssDNA substrate
[12] = read-out: IC50 Values RNase H, A3G inhibitors, this study
[13] = read-out: IC50 Values A3G, dose response, purified full-length A3G-mycHis

Sequence of E. coli uracil DNA glycosylase (UDG) (P12295 whole entry): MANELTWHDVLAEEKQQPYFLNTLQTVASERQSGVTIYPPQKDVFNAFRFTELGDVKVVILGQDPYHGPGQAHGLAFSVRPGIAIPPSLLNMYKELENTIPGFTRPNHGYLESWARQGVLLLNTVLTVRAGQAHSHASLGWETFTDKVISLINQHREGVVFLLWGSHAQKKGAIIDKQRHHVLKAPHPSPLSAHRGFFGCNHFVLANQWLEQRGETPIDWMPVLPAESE
Sequence of human A3A (APOBEC3A) (P31941 whole entry): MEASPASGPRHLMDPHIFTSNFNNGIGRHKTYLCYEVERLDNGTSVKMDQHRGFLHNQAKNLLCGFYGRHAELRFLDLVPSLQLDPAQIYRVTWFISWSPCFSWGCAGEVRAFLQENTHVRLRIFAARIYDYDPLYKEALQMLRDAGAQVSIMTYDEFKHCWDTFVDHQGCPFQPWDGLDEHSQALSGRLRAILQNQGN

Q: Which IC50 [1, 10] does the source give for `CN1CCc2cc(O)cc3c2[C@H]1Cc1ccc(O)c(O)c1-3` [MN16, R(−)-2,10,11-Trihydroxyaporphine hydrobromide] here?
A: > 200 µM

Q: What about the IC50 [2, 11] of the same compound?
A: > 200 µM

Q: And the IC50 [3, 12]?
A: > 25 µM

Q: And the IC50 [4, 13]?
A: 1.7 µM

Q: What does the source list for `C[C@@](Cc1ccc(O)c(O)c1)(NN)C(=O)O` [MN9, S-(−)-Carbidopa]?
A: IC50 [1]: > 200 µM; IC50 [4]: 5.3 µM

Q: For `O=c1cc(O)cc(/C=C/c2ccc(O)c(O)c2)o1` [MN24, Hispidin], which IC50 [5] is on record?
A: > 25 µM

Q: And the IC50 [1]?
A: > 200 µM

Q: What about the IC50 [2] of the same compound?
A: > 200 µM

Q: What about the “inhibitory activity against RNase H (in words)” value [3] of the same compound?
A: modest micromolar inhibitory activity

Q: And the IC50 [4]?
A: 2 µM

Q: With “R(−)-N-Allylnorapomorphine hydrobromide [MN11]” as the compound, how does the IC50 [1, 10] read?
A: > 200 µM

Q: And the IC50 [4, 13]?
A: 2.9 µM

Q: Which “inhibition of A3G's ssDNA binding activity (A3G-ssDNA complex formation)” value [6] does the source give for `CN(N=O)c1cc(O)ccc1O` [MN10, Dephostatin] here?
A: only exceptions

Q: And the IC50 [1]?
A: 150 µM

Q: What about the IC50 [2] of the same compound?
A: > 200 µM

Q: And the stability [7]?
A: too unstable for most biological applications

Q: What about the IC50 [4] of the same compound?
A: 0.43 µM

Q: For `CCCN1CCc2cccc3c2[C@H]1Cc1ccc(O)c(O)c1-3` [MN14, R(−)-Propylnorapomorphine hydrochloride], which IC50 [1, 10] is on record?
A: > 200 µM

Q: And the IC50 [4, 13]?
A: 6.4 µM

Q: Which IC50 [4] does the source give for `O=C(O)[C@]1(O)C[C@@H](O)[C@@H](O)[C@H](O)C1` [Quinic Acid, reference compound] here?
A: > 100 µM

Q: What about the “inhibition of A3G catalytic activity (in words)” value [4] of the same compound?
A: no effect

Q: For `O=C(O)[C@H](O)[C@@H](O)C(=O)O` [L-Tartaric Acid, reference compound], which IC50 [4] is on record?
A: > 100 µM

Q: And the “inhibition of A3G catalytic activity (in words)” value [4]?
A: no effect

Q: What does the source list for Manicol [reference compound]?
A: IC50 ([8]; published value): 0.6 µM; IC50 [4, 13]: > 100 µM

Q: Which IC50 [4] does the source give for `O=C(/C=C/c1ccc(O)c(O)c1)O[C@@H]1C[C@](O)(C(=O)O)C[C@@H](O)[C@H]1O` [Chlorogenic acid, reference compound] here?
A: > 100 µM

Q: And the “inhibition of A3G catalytic activity (in words)” value [4]?
A: no effect

Q: Which results are given for `Oc1ccc(Cn2cc[nH]c2=S)cc1` [MN22, 1-(4-Hydroxybenzyl)imidazole-2-thio]?
A: IC50 [1, 10]: > 200 µM; IC50 [2, 11]: > 200 µM

Q: What does the source list for `CN[C@@H](C)[C@H](O)c1ccccc1` [MN25, (1R,2S)-(−)-Ephedrine]?
A: IC50 [1, 10]: 54 µM; IC50 [4, 13]: 1.3 µM

Q: For `CCCN1CCc2cc(O)cc3c2[C@H]1Cc1ccc(O)c(O)c1-3` [MN17, R(−)-2,10,11-Trihydroxy-N-propylnoraporphine hydrobromide hydrate], which IC50 [1, 10] is on record?
A: > 200 µM

Q: What about the IC50 [4, 13] of the same compound?
A: 13 µM

Q: What does the source list for `O=C(O)Cc1ccc(O)c(O)c1` [MN12, 3,4-Dihydroxyphenylacetic acid]?
A: IC50 [1]: > 200 µM; IC50 [2]: > 200 µM; IC50 [4]: 19 µM

Q: What does the source list for `O=c1c(O)c(-c2cc(O)c(O)c(O)c2)oc2cc(O)cc(O)c12` [MN27, Myricetin]?
A: inhibition of A3A (in words) [1]: inhibit A3A; IC50 [2]: > 200 µM; IC50 [4]: 3.4 µM; inhibition of A3G catalytic activity (in words) [4]: inhibit A3G catalytic activity

Q: Which results are given for `CN1CCc2cccc3c2[C@H]1Cc1ccc(O)c(O)c1-3` [MN2, R-(−)-Apomorphine hydrochloride hemihydrate]?
A: IC50 [5]: > 25 µM; IC50 [1]: > 200 µM; IC50 [2]: > 200 µM; IC50 [3]: > 25 µM; IC50 [4]: 1.3 µM

Q: With `Oc1ccc(O)cc1` [MN21, Hydroquinone] as the compound, how does the IC50 [1] read?
A: > 200 µM

Q: Which IC50 [1] does the source give for `CC(=O)OCC1=C(C(=O)O)N2C(=O)[C@@H](NC(=O)CSc3ccncc3)[C@H]2SC1` [MN7, Cephapirin sodium salt] here?
A: 12 µM

Q: And the IC50 [4]?
A: 7.5 µM

Q: What does the source list for `O=C(/C=C/c1ccc(O)c(O)c1)O[C@@H](C(=O)O)[C@@H](OC(=O)/C=C/c1ccc(O)c(O)c1)C(=O)O` [L-Chicoric Acid, reference compound]?
A: inhibition of A3A (in words) [1]: inhibited; inhibition of A3G catalytic activity (in words) [4]: inhibited; IC50 [4, 13]: 2.8 µM

Q: Which “inhibition of A3A (in words)” value [1] does the source give for `O=C(/C=C/c1ccc(O)c(O)c1)OCCc1ccccc1` [CAPE, caffeic acid phenethyl ester, reference compound] here?
A: no significant effect

Q: And the IC50 [4]?
A: > 100 µM

Q: What about the “inhibition of A3G catalytic activity (in words)” value [4] of the same compound?
A: no significant effect

Q: For `Br.Oc1ccc(C2CNCc3sccc32)cc1O` (stereo not drawn) [MN35, SKF-89626 hydrobromide], which “inhibition of A3G's ssDNA binding activity (A3G-ssDNA complex formation)” value [6] is on record?
A: only exceptions

Q: What about the IC50 [1, 10] of the same compound?
A: > 200 µM

Q: And the IC50 [2, 11]?
A: > 200 µM

Q: And the “inhibitory activity against RNase H (in words)” value [3]?
A: modest micromolar inhibitory activity

Q: And the IC50 [3, 12]?
A: 2.2 µM

Q: And the IC50 [4, 13]?
A: 1.3 µM

Q: Which IC50 [1, 10] does the source give for `CC(Cc1ccc(O)c(O)c1)C(C)Cc1ccc(O)c(O)c1` (stereo not drawn) [MN31, Nordihydroguaiaretic acid] here?
A: > 200 µM

Q: What about the IC50 [4, 13] of the same compound?
A: 8.8 µM

Q: For `O=C1C=CC(=O)C=C1` [MN4, p-Benzoquinone], which IC50 [1, 10] is on record?
A: > 200 µM

Q: What about the IC50 [4, 13] of the same compound?
A: 0.17 µM

Q: With `Oc1cc2c(cc1O)[C@H]1c3ccccc3CN[C@@H]1CC2` (racemic) [MN8, Dihydrexidine hydrochloride] as the compound, how does the IC50 [5] read?
A: > 25 µM

Q: And the IC50 [1]?
A: > 200 µM

Q: And the IC50 [2]?
A: > 200 µM

Q: What about the IC50 [3] of the same compound?
A: > 25 µM

Q: What about the IC50 [4] of the same compound?
A: 0.59 µM

Q: With `O=C(O)/C=C/c1ccc(O)c(O)c1` [MN5, Caffeic acid] as the compound, how does the IC50 [1] read?
A: > 200 µM

Q: What about the IC50 [2] of the same compound?
A: > 200 µM

Q: What about the IC50 [4] of the same compound?
A: 85 µM

Q: Which results are given for `CC(C)c1ccc(O)c(=O)c(O)c1` [β-Thujaplicinol, reference compound]?
A: IC50 ([8]; published value): 0.21 µM; IC50 [4]: > 100 µM

Q: Which results are given for `Cc1nc(N=Nc2cc(S(=O)(=O)O)c3cc([N+](=O)[O-])cc(S(=O)(=O)O)c3c2)c(COP(=O)(O)O)c(C=O)c1O` [MN33, PPNDS tetrasodium]?
A: IC50 [1, 10]: 3.3 µM; IC50 [4, 13]: 5.6 µM

Q: With `Oc1cc2c(cc1O)C(c1ccccc1)CNCC2` (racemic) [MN15, (±)-SKF-38393 hydrochloride] as the compound, how does the IC50 [1, 10] read?
A: > 200 µM

Q: What about the IC50 [2, 11] of the same compound?
A: > 200 µM

Q: What about the IC50 [4, 13] of the same compound?
A: 27 µM

Q: For `O=C(O)c1cc[c]([Hg][Cl])cc1` [MN6, 4-Chloromercuribenzoic acid], which IC50 [1, 10] is on record?
A: 0.26 µM

Q: And the IC50 [4, 13]?
A: 0.13 µM

Q: For `O=C(O)c1ccc(-c2cccc(/C=N/NC(=O)c3cc(O)c(O)c(O)c3)c2)cc1` [BHMP-07, reference compound], which IC50 ([8]; published value) is on record?
A: 0.1 µM

Q: And the IC50 [4, 13]?
A: 13 µM

Q: With `CC(N)(Cc1ccc(O)c(O)c1)C(=O)O` (racemic) [MN28, (±)–3-(3,4-Dihydroxyphenyl)-2-methyl-DL-alanine] as the compound, how does the IC50 [1, 10] read?
A: > 200 µM

Q: And the IC50 [2, 11]?
A: > 200 µM

Q: What about the IC50 [3, 12] of the same compound?
A: > 25 µM

Q: What about the IC50 [4, 13] of the same compound?
A: 13 µM

Q: For `CC(=O)NCCc1ccc(O)c(O)c1` [MN3, N-Acetyldopamine monohydrate], which IC50 [1, 10] is on record?
A: > 200 µM

Q: What about the IC50 [4, 13] of the same compound?
A: 0.45 µM

Q: For `O=C(O)C1=CC(=C(c2ccc(O)c(C(=O)O)c2)c2ccc(O)c(C(=O)O)c2)C=CC1=O` [MN1, Aurintricarboxylic acid], which IC50 [2] is on record?
A: 15 µM

Q: What about the “inhibition of UDG activity (in words)” value [2] of the same compound?
A: blocked UDG activity

Q: What about the IC50 [4] of the same compound?
A: 0.49 µM

Q: What does the source list for `COc1ccc2ccccc2c1/C=N/NC(=O)c1ccc(O)c(O)c1` [KMMP-05 (DHBNH), reference compound]?
A: IC50 ([8]; published value): 0.5 µM; IC50 [4, 13]: > 100 µM

Q: For `OC[C@H]1O[C@H]([S-])[C@H](O)[C@@H](O)[C@@H]1O.[Au+]` [MN26, Aurothioglucose hydrate], which IC50 [1, 10] is on record?
A: > 200 µM

Q: And the IC50 [2, 11]?
A: > 200 µM

Q: What about the IC50 [4, 13] of the same compound?
A: 0.36 µM

Q: With `Oc1cc(O)cc(/C=C/c2ccc(O)c(O)c2)c1` [MN32, Piceatannol] as the compound, how does the “inhibition of A3A-loop 6 deaminase activity” value [9] read?
A: very little inhibition

Q: What about the IC50 [5] of the same compound?
A: > 25 µM

Q: What about the IC50 [1] of the same compound?
A: 200 µM

Q: What about the IC50 [2] of the same compound?
A: > 200 µM

Q: And the IC50 [3]?
A: 0.39 µM

Q: What about the IC50 [4] of the same compound?
A: 1.8 µM

Q: Which results are given for `CN=c1nc(-c2ccccc2)n(-c2ccccc2)s1` [MN34, SCH-202676 hydrobromide]?
A: IC50 [1, 10]: 310 µM; IC50 [2, 11]: > 200 µM; IC50 [4, 13]: 29 µM

Q: Which results are given for `NC(Cc1cc(O)c(O)cc1O)C(=O)O` (racemic) [MN23, 6-Hydroxy-DL-DOPA]?
A: inhibition of A3A (in words) [1]: inhibit A3A; IC50 [2, 11]: > 200 µM; inhibition of A3G catalytic activity (in words) [4]: inhibit A3G catalytic activity; IC50 [4, 13]: 4 µM

Q: Which IC50 [1, 10] does the source give for `NC1CCc2cc(O)c(O)cc2C1` (racemic) [MN13, (±)-2-Amino-6,7-dihydroxy-1,2,3,4-tetrahydronaphthalene hydrobromide] here?
A: > 200 µM

Q: What about the IC50 [2, 11] of the same compound?
A: > 200 µM

Q: And the IC50 [3, 12]?
A: > 25 µM

Q: What about the IC50 [4, 13] of the same compound?
A: 0.7 µM

Q: For `O=C(NN=Cc1c(O)ccc2ccccc12)c1cc(O)c(O)c(O)c1` [KMMP-02 (THBNH), reference compound], which IC50 ([8]; ref M. Parniak, unpublished) is on record?
A: 0.2 µM

Q: And the IC50 [4, 13]?
A: > 100 µM
